# Publication PMC4821887, “Identification of chemicals that mimic transcriptional changes associated with autism, brain aging and neurodegeneration” (Nature Communications, 2016)
# System: mouse cortical cultures
# Assay: RNA-seq differential expression (DESeq) against matched vehicle
# Assay type: cell-based
# Parameters: key to MeanFenamidone Bcl11b / MeanFenamidone Slc12a4 / MeanFenamidone Abca1 / MeanFenamidone Hmox1 / MeanFenamidone Il1rap / MeanFenamidone Cyba / MeanFenamidone Narf / MeanFenamidone Bnip3 / MeanFenamidone Amotl2 / MeanFenamidone Gad2 / MeanFenamidone Vsnl1 / MeanFenamidone Fam178a: DESeq mean of counts over RefSeq exons
# Protocol: Figure 4 Cluster 2 chemicals alter expression of a common set of genes. […] RNA-seq was performed in quadruplicate after treating cortical cultures with fenamidone (10 μM) or pyraclostrobin (0.1 μM) for 24 h (n=3 biological replicates) and compared with matched vehicle controls using DESeq to detect differentially expressed genes, listed in Supplementary Data 4.
# Cultures were treated with the non-cytotoxic dose of each chemical, by exchanging half of the original medium with chemicals at 2 × concentration in prewarmed feeding medium, on DIV 7 for 24 h in 12-well plates at a density of 5 × 10^5 cells per well. RNA was isolated using RNeasy plus mini kit (Cat. #74134, Qiagen). […]. Samples were further assessed for quality using either an Agilent Bioanalyzer 2100 or TapeStation 2200 to obtain a RIN. RIN values exceeding 7 were used for sequencing. RNA samples were used to generate and barcode complementary DNA libraries using the TruSeq RNA Library Preparation Kit at the UNC High Throughput Sequencing Facility. Pools of 24 multiplexed samples were sequenced per lane on an Illumina HiSeq 2500 using 50-bp paired-end reads.
# RNA-seq reads were filtered using TagDust and aligned to the reference mouse genome (mm9) with TopHat using default parameters. Reads aligning to ribosomal RNA genes were removed. Transcript abundance was estimated by computing Reads per kilobase per million mapped reads (RPKM) using RefSeq gene models aggregated by gene symbol. For differential expression analyses, raw counts over RefSeq exons were used, and then were compared across samples using DESeq[62].
structure (smiles),measurement,setting,value
CSC1=N[C@@](C)(c2ccccc2)C(=O)N1Nc1ccccc1 [fenamidone],MeanFenamidone Kirrel,"gene Kirrel, DESeq mean, 4 reps",376.176
same,log2FoldChange Kirrel,"gene Kirrel, vs vehicle, 4 reps",1.966
same,MeanFenamidone Klf3,"gene Klf3, DESeq mean, 4 reps",165.964
same,log2FoldChange Klf3,"gene Klf3, vs vehicle, 4 reps",1.6001
same,MeanFenamidone Lama5,"gene Lama5, DESeq mean, 4 reps",696.831
same,log2FoldChange Lama5,"gene Lama5, vs vehicle, 4 reps",3.008
same,MeanFenamidone Lamc1,"gene Lamc1, DESeq mean, 4 reps",1262.75
same,log2FoldChange Lamc1,"gene Lamc1, vs vehicle, 4 reps",1.942
same,MeanFenamidone Lats2,"gene Lats2, DESeq mean, 4 reps",789.339
same,log2FoldChange Lats2,"gene Lats2, vs vehicle, 4 reps",2.05
same,MeanFenamidone,gene Lgals1,315.526
same,log2FoldChange,gene Lgals1,2.643
same,MeanFenamidone Lgals3,"gene Lgals3, DESeq mean, 4 reps",148.009
same,log2FoldChange Lgals3,"gene Lgals3, vs vehicle, 4 reps",3.47
same,MeanFenamidone Lhfp,"gene Lhfp, DESeq mean, 4 reps",460.237
same,log2FoldChange Lhfp,"gene Lhfp, vs vehicle, 4 reps",1.564
same,MeanFenamidone,gene Lhx6,36.2637
same,log2FoldChange,gene Lhx6,-1.466
same,MeanFenamidone Lif,"gene Lif, DESeq mean, 4 reps",71.2282
same,log2FoldChange Lif,"gene Lif, vs vehicle, 4 reps",2.278
same,MeanFenamidone Lima1,"gene Lima1, DESeq mean, 4 reps",304.711
same,log2FoldChange Lima1,"gene Lima1, vs vehicle, 4 reps",2.122
same,MeanFenamidone Lipa,"gene Lipa, DESeq mean, 4 reps",195.186
same,log2FoldChange Lipa,"gene Lipa, vs vehicle, 4 reps",1.701
same,MeanFenamidone,gene Lpp,386.544
same,log2FoldChange,gene Lpp,2.227
same,MeanFenamidone,gene Lrig1,287.461
same,log2FoldChange,gene Lrig1,1.313
same,MeanFenamidone Lrp2,"gene Lrp2, DESeq mean, 4 reps",218.41
same,log2FoldChange Lrp2,"gene Lrp2, vs vehicle, 4 reps",3.259
same,MeanFenamidone Lrp5,"gene Lrp5, DESeq mean, 4 reps",104.9
same,log2FoldChange Lrp5,"gene Lrp5, vs vehicle, 4 reps",2.141
same,MeanFenamidone Lrrk1,"gene Lrrk1, DESeq mean, 4 reps",150.568
same,log2FoldChange Lrrk1,"gene Lrrk1, vs vehicle, 4 reps",2.538
same,MeanFenamidone Lrrk2,"gene Lrrk2, DESeq mean, 4 reps",55.3056
same,log2FoldChange Lrrk2,"gene Lrrk2, vs vehicle, 4 reps",2.7898
same,MeanFenamidone Lsm11,"gene Lsm11, DESeq mean, 4 reps",253.873
same,log2FoldChange Lsm11,"gene Lsm11, vs vehicle, 4 reps",-1.609
same,MeanFenamidone Lzts1,"gene Lzts1, DESeq mean, 4 reps",28.4823
same,log2FoldChange Lzts1,"gene Lzts1, vs vehicle, 4 reps",-2.067
same,MeanFenamidone Maff,"gene Maff, DESeq mean, 4 reps",142.888
same,log2FoldChange Maff,"gene Maff, vs vehicle, 4 reps",2.5091
same,MeanFenamidone,gene Man2b1,147.398
same,log2FoldChange,gene Man2b1,1.707
same,MeanFenamidone,gene Map9,691.478
same,log2FoldChange,gene Map9,-1.0525
same,MeanFenamidone Mapkapk3,"gene Mapkapk3, DESeq mean, 4 reps",109.426
same,log2FoldChange Mapkapk3,"gene Mapkapk3, vs vehicle, 4 reps",2.329
same,MeanFenamidone Mdk,"gene Mdk, DESeq mean, 4 reps",140.699
same,log2FoldChange Mdk,"gene Mdk, vs vehicle, 4 reps",2.08
same,MeanFenamidone,gene Mdm2,455.963
same,log2FoldChange,gene Mdm2,1.1
same,MeanFenamidone Mllt11,"gene Mllt11, DESeq mean, 4 reps",1306.3
same,log2FoldChange Mllt11,"gene Mllt11, vs vehicle, 4 reps",-1.396
same,MeanFenamidone Mpp6,"gene Mpp6, DESeq mean, 4 reps",437.651
same,log2FoldChange Mpp6,"gene Mpp6, vs vehicle, 4 reps",1.381
same,MeanFenamidone Msn,"gene Msn, DESeq mean, 4 reps",1825.06
same,log2FoldChange Msn,"gene Msn, vs vehicle, 4 reps",2.348
same,MeanFenamidone Mturn,"gene Mturn, DESeq mean, 4 reps",252.358
same,log2FoldChange Mturn,"gene Mturn, vs vehicle, 4 reps",-1.427
same,MeanFenamidone Myh9,"gene Myh9, DESeq mean, 4 reps",944.67
same,log2FoldChange Myh9,"gene Myh9, vs vehicle, 4 reps",2.571
same,MeanFenamidone,gene Myl9,343.782
same,log2FoldChange,gene Myl9,2.6473
same,MeanFenamidone Myl12a,"gene Myl12a, DESeq mean, 4 reps",537.985
same,log2FoldChange Myl12a,"gene Myl12a, vs vehicle, 4 reps",2.298
same,MeanFenamidone,gene Myo9b,246.577
same,log2FoldChange,gene Myo9b,1.347
same,MeanFenamidone Myof,"gene Myof, DESeq mean, 4 reps",104.99
same,log2FoldChange Myof,"gene Myof, vs vehicle, 4 reps",3.761
same,MeanFenamidone Nap1l2,"gene Nap1l2, DESeq mean, 4 reps",81.273
same,log2FoldChange Nap1l2,"gene Nap1l2, vs vehicle, 4 reps",-1.959
same,MeanFenamidone Nap1l3,"gene Nap1l3, DESeq mean, 4 reps",110.395
same,log2FoldChange Nap1l3,"gene Nap1l3, vs vehicle, 4 reps",-1.464
same,MeanFenamidone Narf,"gene Narf, DESeq mean, 4 reps",102.622
same,log2FoldChange Narf,"gene Narf, vs vehicle, 4 reps",-2.14
same,MeanFenamidone,gene Ndrg4,999.172
same,log2FoldChange,gene Ndrg4,-1.28
same,MeanFenamidone Nefl,"gene Nefl, DESeq mean, 4 reps",284.238
same,log2FoldChange Nefl,"gene Nefl, vs vehicle, 4 reps",-1.45
same,MeanFenamidone,gene Neurl1a,95.3821
same,log2FoldChange,gene Neurl1a,-1.321
same,MeanFenamidone Notch1,"gene Notch1, DESeq mean, 4 reps",316.63
same,log2FoldChange Notch1,"gene Notch1, vs vehicle, 4 reps",1.887
same,MeanFenamidone Notch3,"gene Notch3, DESeq mean, 4 reps",258.391
same,log2FoldChange Notch3,"gene Notch3, vs vehicle, 4 reps",2.018
same,MeanFenamidone Npnt,"gene Npnt, DESeq mean, 4 reps",335.437
same,log2FoldChange Npnt,"gene Npnt, vs vehicle, 4 reps",1.337
same,MeanFenamidone,gene Npr2,171.686
same,log2FoldChange,gene Npr2,1.617
same,MeanFenamidone,gene Nrep,2228.26
same,log2FoldChange,gene Nrep,-1.081
same,MeanFenamidone,gene Nrg1,57.9878
same,log2FoldChange,gene Nrg1,2.155
same,MeanFenamidone,gene Nrxn3,100.585
same,log2FoldChange,gene Nrxn3,-1.713
same,MeanFenamidone,gene Nsmf,509.681
same,log2FoldChange,gene Nsmf,-1.17
same,MeanFenamidone Nuak2,"gene Nuak2, DESeq mean, 4 reps",199.356
same,log2FoldChange Nuak2,"gene Nuak2, vs vehicle, 4 reps",1.954
same,MeanFenamidone,gene Nup93,78.3583
same,log2FoldChange,gene Nup93,1.518
same,MeanFenamidone Nxph1,"gene Nxph1, DESeq mean, 4 reps",23.0758
same,log2FoldChange Nxph1,"gene Nxph1, vs vehicle, 4 reps",-2.821
same,MeanFenamidone Nxph2,"gene Nxph2, DESeq mean, 4 reps",12.3649
same,log2FoldChange Nxph2,"gene Nxph2, vs vehicle, 4 reps",-2.898
same,MeanFenamidone P2ry2,"gene P2ry2, DESeq mean, 4 reps",92.6995
same,log2FoldChange P2ry2,"gene P2ry2, vs vehicle, 4 reps",2.7714
same,MeanFenamidone,gene Parp3,104.686
same,log2FoldChange,gene Parp3,1.933
same,MeanFenamidone,gene Pcdh9,219.607
same,log2FoldChange,gene Pcdh9,-1.474
same,MeanFenamidone,gene Pcdh17,217.631
same,log2FoldChange,gene Pcdh17,-1.1203
same,MeanFenamidone Pcdh19,"gene Pcdh19, DESeq mean, 4 reps",219.013
same,log2FoldChange Pcdh19,"gene Pcdh19, vs vehicle, 4 reps",-1.519
same,MeanFenamidone,gene Pcdhb9,20.2277
same,log2FoldChange,gene Pcdhb9,-1.874
same,MeanFenamidone Pcyt1b,"gene Pcyt1b, DESeq mean, 4 reps",228.459
same,log2FoldChange Pcyt1b,"gene Pcyt1b, vs vehicle, 4 reps",-1.515
same,MeanFenamidone Pdlim5,"gene Pdlim5, DESeq mean, 4 reps",799.854
same,log2FoldChange Pdlim5,"gene Pdlim5, vs vehicle, 4 reps",2.0349
same,MeanFenamidone Pgm2l1,"gene Pgm2l1, DESeq mean, 4 reps",972.539
same,log2FoldChange Pgm2l1,"gene Pgm2l1, vs vehicle, 4 reps",-1.841
same,MeanFenamidone Phlda3,"gene Phlda3, DESeq mean, 4 reps",537.092
same,log2FoldChange Phlda3,"gene Phlda3, vs vehicle, 4 reps",1.998
same,MeanFenamidone Phldb2,"gene Phldb2, DESeq mean, 4 reps",121.953
same,log2FoldChange Phldb2,"gene Phldb2, vs vehicle, 4 reps",2.252
same,MeanFenamidone,gene Phyh,85.5792
same,log2FoldChange,gene Phyh,1.618
same,MeanFenamidone Piezo1,"gene Piezo1, DESeq mean, 4 reps",449.998
same,log2FoldChange Piezo1,"gene Piezo1, vs vehicle, 4 reps",2.353
same,MeanFenamidone Plcb3,"gene Plcb3, DESeq mean, 4 reps",85.3651
same,log2FoldChange Plcb3,"gene Plcb3, vs vehicle, 4 reps",2.324
same,MeanFenamidone,gene Plec,505.373
same,log2FoldChange,gene Plec,1.462
same,MeanFenamidone Plekha7,"gene Plekha7, DESeq mean, 4 reps",128.547
same,log2FoldChange Plekha7,"gene Plekha7, vs vehicle, 4 reps",1.951
same,MeanFenamidone Plekhg2,"gene Plekhg2, DESeq mean, 4 reps",436.894
same,log2FoldChange Plekhg2,"gene Plekhg2, vs vehicle, 4 reps",2.353
same,MeanFenamidone Plxnb2,"gene Plxnb2, DESeq mean, 4 reps",1959.53
same,log2FoldChange Plxnb2,"gene Plxnb2, vs vehicle, 4 reps",1.762
same,MeanFenamidone,gene Pnma2,202.102
same,log2FoldChange,gene Pnma2,-1.217
same,MeanFenamidone,gene Ppard,113.665
same,log2FoldChange,gene Ppard,1.493
same,MeanFenamidone Ppm1e,"gene Ppm1e, DESeq mean, 4 reps",435.513
same,log2FoldChange Ppm1e,"gene Ppm1e, vs vehicle, 4 reps",-1.5474
same,MeanFenamidone Pqlc3,"gene Pqlc3, DESeq mean, 4 reps",109.637
same,log2FoldChange Pqlc3,"gene Pqlc3, vs vehicle, 4 reps",2.1113
same,MeanFenamidone Prkcg,"gene Prkcg, DESeq mean, 4 reps",26.526
same,log2FoldChange Prkcg,"gene Prkcg, vs vehicle, 4 reps",-1.929
same,MeanFenamidone,gene Prkcz,141.39
same,log2FoldChange,gene Prkcz,-1.24
same,MeanFenamidone,gene Prrt2,169.168
same,log2FoldChange,gene Prrt2,-1.281
same,MeanFenamidone,gene Prss23,845.081
